In US20090137784A1, “Epidermal Growth Factor Receptor Polypeptides and Antibodies” (priority 2005, published 2009):
*: point of attachment. Biotin = O=C1N[C@H]2[C@H](CS[C@H]2CCCCC(=O)*)N1

Tests used:
Assay type in all cases: cell-based
EGFR [1] = biological target: T1, EGFR (Homo sapiens, UniProt P00533); test: Biotinylated cyclic polypeptides tested for inhibition of EGFR phosphorylation in a model HMEC cell system; settings: biotinylated cyclic polypeptide
T1 construct: endogenous in cells; host or cells: 184A1 human mammary epithelial cells (parental HMEC); also 24H HMEC line (overexpresses HER2)
From the text: We selected amino acid sequences corresponding to fragments of Domain II and Domain IV of EGFR. The sequence of each polypeptide is shown in the first column of Table 1. The polypeptides were chosen based on their positions on the crystal structures of monomeric and dimeric EGFR (Burgess et al, Mol. Cell. 12:541-552, 2003). Although Domain IV of EGFR is not resolved in the dimer crystal structure, it is believed that portions of Domain IV come into contact upon dimerization. […] We generated biotinylated cyclic polypeptides that included each sequence and tested them in a model HMEC cell system. The sequences of the biotinylated cyclic polypeptides are shown in the third column of Table 1. […] For the LYNPTTYQMD polypeptide, the different results obtained from polypeptide and polyclonal antisera inhibition could be due to differences in the quantitative details of the assays, or the polypeptide could have a lower affinity for the receptor than the polyclonal antisera does.

EGFR [2] = biological target: T1, EGFR; test: Quantitative Western blot of EGFR tyrosine 1173 phosphorylation in HMECs treated with rabbit polyclonal antisera; settings: for relative EGFR tyrosine 1173 phosphorylation: HMECs, 2 hours with antisera, then 25 nM EGF for 5 minutes, FIG. 1; for Polyclonal antisera inhibition (EGFR phosphorylation): rabbit polyclonal antisera, 184A1 human mammary epithelial cells
Experimental: Anti-domain II and anti-domain IV rabbit polyclonal antisera were generated against polypeptides LYNPTTYQMD (SEQ ID NO: 1) and MGENNT (SEQ ID NO:4). Briefly, rabbits were injected with one of the peptides, and the resulting antisera were collected. The rabbit sera were purified by ammonium sulfate precipitation followed by desalting. These polyclonal antisera were then used to treat human mammary epithelial cells (HMECs) and to measure the antisera's effect on EGFR tyrosine 1173 phosphorylation by quantitative Western blot analysis. HMECs were grown to 80% confluence and incubated for 2 hours in serum-free media containing various concentrations of the rabbit polyclonal antisera. The cells were then washed and incubated with 25 nM EGF for 5 minutes. The cells were lysed, and the proteins in the lysate were run on a SDS-PAGE gel and transferred onto PDVF membranes. Blots were detected using an anti-EGFR phosphotyrosine 1173 antibody and horseradish peroxidase, and band intensity was quantified using Kodak® 1D 3.5 software. The results are shown in FIG. 1 as relative EGFR tyrosine 1173 phosphorylation in the presence of varying concentrations of polyclonal antisera. The tyrosine phosphorylation in the presence of antiserum has been normalized by total EGFR intensity and tyrosine phosphorylation in the absence of antiserum.
Additional quantitative Western blot analysis was performed to examine EGFR 1173 tyrosine phosphorylation and HER21248 tyrosine phosphorylation in normal, parental HMECs, as well as a 24H HMEC line which overexpresses HER2 (Hendriks et al., Cancer Res. 63:1130-1137, 2003). Western blot analysis was described as above, and the results are depicted in FIGS. 3-6. […] P DII and P DIV are the polyclonal antisera against polypeptides LYNPTTYQMD (SEQ ID NO:1) and MGENNT (SEQ ID NO:4), respectively. For comparison, P 225 is a commercially purchased monoclonal antibody that blocks EGFR ligand binding (Sato et al., Mol. Biol. Med. 1:511-529, 1983). Negative controls are indicated by a (−). […] FIGS. 5 and 6 show relative HER2 1248 tyrosine phosphorylation in parental and 24H HMECs, respectively. The results in FIGS. 3-6 indicate that antibodies that bind to polypeptides LYNPTTYQMD (SEQ ID NO:1) and MGENNT (SEQ ID NO:4) of EGFR can reduce both EGFR and HER2 phosphorylation in normal HMECs, as well as those overexpressing HER2.

[3] = biological target: T2, heterodimerization of HER2 with EGFR (Homo sapiens, UniProt P00533); test: Co-immunoprecipitation of HER2 with EGFR from HMEC lysates; settings: HMECs, antiserum 0.1 and 1 μM; FIG. 2
T2 construct: EGFR in each sample was immunoprecipitated from HMEC lysates using an anti-EGFR antibody; endogenous in cells; host or cells: HMEC (human mammary epithelial cells)
Experimental: Next, we analyzed the amount of HER2 co-immunoprecipitated with EGFR in the presence and absence of rabbit polyclonal antiserum against peptide MGENNT. HMECs were treated as before with the antiserum. EGFR in each sample was immunoprecipitated from HMEC lysates using an anti-EGFR antibody obtained from Santa Cruz Biotechnology, Inc. Immunoprecipitates were resolved by SDS-PAGE and blotted with anti-HER2 antibody (Cell Signaling). The results are depicted in FIG. 2, where N is the non-EGF stimulated negative control, P is the cells with no rabbit antisera incubation, and 0.1 and 1 are the concentrations of rabbit polyclonal antisera in μM.

Substance: Biotin-Aha-CMGENNTG-CONH2
- Peptide Inhibition (EGFR phosphorylation) (EGFR [1]): Yes
- relative EGFR tyrosine 1173 phosphorylation (EGFR [2]): decrease the tyrosine phosphorylation of EGFR
- Polyclonal antisera inhibition (EGFR phosphorylation) (EGFR [2]): Yes
- HER2 co-immunoprecipitated with EGFR [3]: less HER2 is co-immunoprecipitated with EGFR

Substance: Biotin-GCGLYNPTTYQMDGCG-NH2 (cysteine pairing not given here)
- relative EGFR tyrosine 1173 phosphorylation (EGFR [2]): decrease the tyrosine phosphorylation of EGFR
- Polyclonal antisera inhibition (EGFR phosphorylation) (EGFR [2]): Yes

Substance: CAHYIDGPHC [Biotin-GCAHYIDGPHCG-CONH2]
- Peptide Inhibition (EGFR phosphorylation) (EGFR [1]): Yes

Substance: CRNVSRGREC [Biotin-GCRNVSRGRECG- CONH2]
- Peptide Inhibition (EGFR phosphorylation) (EGFR [1]): Yes

Substance: LVWKYADAG [Biotin-GCLVWKYADAGCG-CONH2]
- Peptide Inhibition (EGFR phosphorylation) (EGFR [1]): Yes

Substance: LYNPTTYQMD [Biotin-GCGLYNPTTYQMDGCG-CONH2]
- Peptide Inhibition (EGFR phosphorylation) (EGFR [1]): No
